Counter-ions that a name gives are not always drawn.

The results in this text go back to patent US8193150B2, “Improving vascular function with an inactivating mutant of a TRPC channel protein” (Sanofi, priority 2005, dated 2012).

In test [1] the target is T1, TRPC6 (Homo sapiens, UniProt Q9Y210).
T1 construct: expressed in transfected cells
T1 sequence (Q9Y210 1-931): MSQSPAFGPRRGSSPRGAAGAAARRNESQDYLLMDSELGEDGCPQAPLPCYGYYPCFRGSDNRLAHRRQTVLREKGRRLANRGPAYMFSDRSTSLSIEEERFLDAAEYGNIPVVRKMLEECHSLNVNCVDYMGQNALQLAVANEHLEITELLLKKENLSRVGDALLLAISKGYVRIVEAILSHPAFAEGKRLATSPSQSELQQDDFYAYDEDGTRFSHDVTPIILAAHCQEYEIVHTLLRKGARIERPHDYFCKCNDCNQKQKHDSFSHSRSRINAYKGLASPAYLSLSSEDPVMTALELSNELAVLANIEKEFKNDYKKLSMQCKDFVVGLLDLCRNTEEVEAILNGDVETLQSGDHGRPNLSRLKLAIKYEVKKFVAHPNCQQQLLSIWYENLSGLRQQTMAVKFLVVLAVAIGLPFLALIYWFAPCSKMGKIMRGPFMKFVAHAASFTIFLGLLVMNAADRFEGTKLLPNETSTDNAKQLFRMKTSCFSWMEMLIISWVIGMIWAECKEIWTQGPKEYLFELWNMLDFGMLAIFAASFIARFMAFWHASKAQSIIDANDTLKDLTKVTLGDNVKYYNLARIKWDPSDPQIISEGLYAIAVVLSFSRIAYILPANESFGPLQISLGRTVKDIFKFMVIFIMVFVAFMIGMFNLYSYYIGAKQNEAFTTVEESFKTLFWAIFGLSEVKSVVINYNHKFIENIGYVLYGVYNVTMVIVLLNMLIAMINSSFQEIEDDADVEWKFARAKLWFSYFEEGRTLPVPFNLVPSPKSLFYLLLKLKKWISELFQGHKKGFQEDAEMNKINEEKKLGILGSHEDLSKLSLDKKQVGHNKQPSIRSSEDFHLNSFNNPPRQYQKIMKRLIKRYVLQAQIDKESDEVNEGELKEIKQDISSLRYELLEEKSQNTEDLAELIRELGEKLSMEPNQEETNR
Put plainly: FLIPR Ca2+ fluorescence assay in inducible Flp-In T-REx-TRPC6 HEK 293 cells. The class given is cell-based. The note with it: mean±SEM; for Fluorescence changes (F/F0): 200 nM trypsin, t=60 sec, n=12. The source says:
(§1) To develop an assay for the identification of TRPC channel modulators, recombinant HEK 293 cell lines were produced using the Flp-In T-REx system (Invitrogen, Karsruhe, Germany) that express TRPC3 (accession # U47050) or TRPC6 (accession # AF080394) cDNAs under the control of an inducible promoter. Channel cDNAs were amplified by standard techniques and cloned into pcDNA5/FRT/TO (Invitrogen, Karlsruhe, Germany). After transfection of Flp-In T-Rex 293 cells with the channel constructs stable cell lines were selected with hygromycin. Cells were maintained according to the manufactures instructions and channel expression of was induced by addition of 1 μg/ml doxycycline for 20-30 h. Cells were plated into 96 well poly-d-lysine coated black walled clear bottom microtiter plates (BD Biosciences, Bedford, Mass.) at a density of 40000-50000 cells/well 20-30 h before experiments. […] Ca^2+ measurements were performed using a 96 well Fluorescence Imaging Plate Reader (FLIPR), (Molecular Devices Corporation, Sunnyvale, Calif.). […]
(§2) Fluorescence changes in fluo-4 loaded cells were measured using FLIPR II. […] Shown are mean fluorescence values±SEM from 9 wells each. Fluorescence values were normalized to the mean baseline fluorescence (F0).
(§3) To identify modulators of TRPC3 or TRPC6 with the assays described above induced cells were used and test compounds are added to the wells before or after application of OAG. The expected effect of inhibitors would be a reduction of the fluorescence increase. Channel activators would lead to a further increase of the OAG-evoked signal or induce an OAG-independent fluorescence increase. […]
(§4) Fluorescence changes induced by 30 μM OAG in TRPC3-and TRPC6 expressing cells were measured in the presence of the given concentrations of SKF 96365. […] Inhibition is expressed as % of control fluorescence in the absence of SKF 96365. […]

The target of test [2] is T2, TRPC3 (Homo sapiens, UniProt Q13507).
T2 construct: expressed in transfected cells
T2 sequence (Q13507 74-921): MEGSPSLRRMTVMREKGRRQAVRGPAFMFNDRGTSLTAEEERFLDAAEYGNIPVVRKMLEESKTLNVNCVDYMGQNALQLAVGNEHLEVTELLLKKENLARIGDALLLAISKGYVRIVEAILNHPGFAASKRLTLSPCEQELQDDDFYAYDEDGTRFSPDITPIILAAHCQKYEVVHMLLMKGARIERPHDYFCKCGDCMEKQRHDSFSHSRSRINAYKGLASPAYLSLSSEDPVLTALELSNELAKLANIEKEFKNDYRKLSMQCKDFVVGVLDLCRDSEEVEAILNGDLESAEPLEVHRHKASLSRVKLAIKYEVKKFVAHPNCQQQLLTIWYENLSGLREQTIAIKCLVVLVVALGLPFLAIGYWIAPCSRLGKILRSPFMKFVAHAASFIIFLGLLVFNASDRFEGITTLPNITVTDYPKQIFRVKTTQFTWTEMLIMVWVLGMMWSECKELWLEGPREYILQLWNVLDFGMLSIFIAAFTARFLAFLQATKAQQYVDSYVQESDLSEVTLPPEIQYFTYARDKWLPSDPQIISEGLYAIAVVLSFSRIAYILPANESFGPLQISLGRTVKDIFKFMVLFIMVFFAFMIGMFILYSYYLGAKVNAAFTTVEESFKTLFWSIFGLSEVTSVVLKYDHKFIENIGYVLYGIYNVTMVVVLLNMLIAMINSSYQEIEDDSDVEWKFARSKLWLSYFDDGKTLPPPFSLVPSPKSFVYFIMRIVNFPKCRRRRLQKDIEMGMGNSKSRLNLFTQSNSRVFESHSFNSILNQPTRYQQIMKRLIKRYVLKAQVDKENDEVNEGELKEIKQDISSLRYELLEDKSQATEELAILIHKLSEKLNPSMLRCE
Put plainly: FLIPR Ca2+ fluorescence assay in inducible Flp-In T-REx-TRPC3 HEK 293 cells. The class given is cell-based. To be noted: mean±SEM; for Fluorescence changes (F/F0): 200 nM trypsin, t=60 sec, n=9.
Text: as §1, §2, §3, §4

On to trypsin, for which the “Fluorescence changes (F/F0)” value in test [1] (induced Flp-In T-REx-TRPC6 cells) is listed as 2.26 ± 0.05 (n = 12); in test [1] (non-induced Flp-In T-REx-TRPC6 cells) it was 0.88 ± 0.009 (n = 12); in test [2] (induced Flp-In T-REx-TRPC3 cells), 2.71 ± 0.022 (n = 9); in test [2] (non-induced Flp-In T-REx-TRPC3 cells), 1.65 ± 0.034 (n = 9).

Regarding `COc1ccc(CCCOC(Cn2ccnc2)c2ccc(OC)cc2)cc1` (stereo not drawn) [SKF 96365, 1-(β-[3-(4-methoxyphenyl)propoxy]-4-methoxyphenethyl)-1H-imidazole-HCl], the IC50 in test [1] (doxycycline-induced cells, 30 μM OAG, n=8, read-out: IC50, inhibition of OAG-activated fluorescence responses in TRPC6 expressing cells) worked out at 5.04 ± 0.17 µM; in test [2] (doxycycline-induced cells, 30 μM OAG, n=8, read-out: IC50, inhibition of OAG-activated fluorescence responses in TRPC3 expressing cells) it was 1.8 µM.

For orientation: IC50 means the point on the concentration scale where inhibition reaches its midpoint.
